Where a name gives a salt, the structure may show the parent alone.
Tested on: Acinetobacter baumannii ATCC17961
Assay: Antimicrobial susceptibility testing: 90% growth inhibitory concentration (IC90) determination in Iso-Sensitest broth, OD600 growth
Format: cell-based
Settings: Acinetobacter baumannii, ATCC17961, 16 h, read-out: A. baumannii ATCC 17961 IC90 (uM), strain ATCC 17961, OD600 growth over 16 h
Method in brief: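 Compounds were twofold serially diluted in DMSO across 10 points (e.g. 50 to 0.097 μM final) and inoculated at ~5×10^(5) CFU/ml. Plates incubated at 35±2° C, with OD600 read every 20 minutes over 16 h. IC90 was derived from growth inhibition during logarithmic growth.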

| SMILES | IC90 [µM] |
| --- | --- |
| N#CCn1cc(-c2cnc3c(Nc4ccc(C(=O)N5CCN(CC(=O)NCCN)CC5)c(Cl)c4)nccn23)c(C(F)(F)F)n1 [Example 602, N-(2-aminoethyl)-2-(4-(2-chloro-4-((3-(1-(cyanomethyl)-3-(trifluoromethyl)-1H-pyrazol-4-yl)imidazo[1,2-a]pyrazin-8-yl)amino)benzoyl)piperazin-1-yl)acetamide formate] | 0.448 |
| N#CCn1cc(-c2cnc3c(Nc4ccc(C(=O)N5CCN(CC(=O)NCCCN)CC5)c(Cl)c4)nccn23)c(C(F)(F)F)n1 [Example 603, N-(3-aminopropyl)-2-(4-(2-chloro-4-((3-(1-(cyanomethyl)-3-(trifluoromethyl)-1H-pyrazol-4-yl)imidazo[1,2-a]pyrazin-8-yl)amino)benzoyl)piperazin-1-yl)acetamide formate] | 0.384 |
| N#CCn1cc(-c2cnc3c(Nc4ccc(C(=O)N5CCN(CC(=O)NC6CNC6)CC5)c(Cl)c4)nccn23)c(C(F)(F)F)n1 [Example 604, N-(azetidin-3-yl)-2-(4-(2-chloro-4-((3-(1-(cyanomethyl)-3-(trifluoromethyl)-1H-pyrazol-4-yl)imidazo[1,2-a]pyrazin-8-yl)amino)benzoyl)piperazin-1-yl)acetamide formate] | 0.602 |
| NCCCNC(=O)CN1CCN(C(=O)c2ccc(Nc3nccn4c(-c5cn(CC(F)F)nc5C(F)(F)F)cnc34)cc2Cl)CC1 [Example 606, N-(3-aminopropyl)-2-(4-(2-chloro-4-((3-(1-(2,2-difluoroethyl)-3-(trifluoromethyl)-1H-pyrazol-4-yl)imidazo[1,2-a]pyrazin-8-yl)amino)benzoyl)piperazin-1-yl)acetamide formate] | 0.303 |
| N#CCn1cc(-c2cnc3c(Nc4ccc(C(=O)N5CCN(CC(=O)N6CCNCC6)CC5)c(Cl)c4)nccn23)c(C(F)(F)F)n1 [Example 607, 2-(4-(8-((3-chloro-4-(4-(2-oxo-2-(piperazin-1-yl)ethyl)piperazine-1-carbonyl)phenyl)amino)imidazo[1,2-a]pyrazin-3-yl)-3-(trifluoromethyl)-1H-pyrazol-1-yl)acetonitrile formate] | 0.878 |
| O=C(CN1CCN(C(=O)c2ccc(Nc3nccn4c(-c5cn(CC(F)F)nc5C(F)(F)F)cnc34)cc2Cl)CC1)N1CCNCC1 [Example 608, 2-(4-(2-chloro-4-((3-(1-(2,2-difluoroethyl)-3-(trifluoromethyl)-1H-pyrazol-4-yl)imidazo[1,2-a]pyrazin-8-yl)amino)benzoyl)piperazin-1-yl)-1-(piperazin-1-yl) ethan-1-one formate] | 0.936 |
| CCc1cc(Nc2nccn3c(-c4cn(C5CCC5)nc4C(F)(F)F)cnc23)ccc1C(=O)NCCOCCCN [Example 609, N-(2-(3-aminopropoxy)ethyl)-4-((3-(1-cyclobutyl-3-(trifluoromethyl)-1H-pyrazol-4-yl)imidazo[1,2-a]pyrazin-8-yl)amino)-2-ethylbenzamide formate] | 0.086 |
| CCc1cc(Nc2nccn3c(-c4cn(CCF)nc4C(F)(F)F)cnc23)ccc1C(=O)NCCOCCCN [Example 610, N-(2-(3-aminopropoxy)ethyl)-2-ethyl-4-((3-(1-(2-fluoroethyl)-3-(trifluoromethyl)-1H-pyrazol-4-yl)imidazo [1,2-a]pyrazin-8-yl)amino)benzamide formate] | 0.099 |
| CCc1cc(Nc2nccn3c(-c4cn(CC(F)F)nc4C(F)(F)F)cnc23)ccc1C(=O)NCCNC(=O)CN [Example 611, N-(2-(2-aminoacetamido)ethyl)-4-((3-(1-(2,2-difluoroethyl)-3-(trifluoromethyl)-1H-pyrazol-4-yl)imidazo[1,2-a]pyrazin-8-yl)amino)-2-ethylbenzamide formate] | 0.11 |
| CCc1cc(Nc2nccn3c(-c4cn(CC#N)nc4C(F)(F)F)cnc23)ccc1C(=O)NCCOCCCN [Example 612, N-(2-(3-aminopropoxy)ethyl)-4-((3-(1-(cyanomethyl)-3-(trifluoromethyl)-1H-pyrazol-4-yl)imidazo[1,2-a]pyrazin-8-yl)amino)-2-ethylbenzamide formate] | 0.1 |
| CCc1cc(Nc2nccn3c(-c4c[nH]nc4C(F)(F)F)cnc23)ccc1C(=O)NCCOCCCN [Example 613, N-(2-(3-aminopropoxy)ethyl)-2-ethyl-4-((3-(3-(trifluoromethyl)-1H-pyrazol-4-yl)imidazo [1,2-a]pyrazin-8-yl)amino)benzamide formate] | 0.105 |
| CCc1cc(Nc2nccn3c(-c4cn(CC=C(C)C)nc4C(F)(F)F)cnc23)ccc1C(=O)NCCOCCN [Example 614, N-(2-(2-aminoethoxy)ethyl)-2-ethyl-4-((3-(1-(3-methylbut-2-en-1-yl)-3-(trifluoromethyl)-1H-pyrazol-4-yl)imidazo[1,2-a]pyrazin-8-yl)amino)benzamide formate] | 0.11 |
| CCc1cc(Nc2nccn3c(-c4cn(CC(F)F)nc4C(F)(F)F)cnc23)ccc1C(=O)NCCNC(=O)[C@H](C)N [Example 616, (S)-N-(2-(2-aminopropanamido)ethyl)-4-((3-(1-(2,2-difluoroethyl)-3-(trifluoromethyl)-1H-pyrazol-4-yl)imidazo[1,2-a]pyrazin-8-yl)amino)-2-ethylbenzamide formate] | 0.153 |
| CCc1cc(Nc2nccn3c(-c4cn(CC(F)F)nc4C(F)(F)F)cnc23)ccc1C(=O)NCCOCCCN [Example 618, N-(2-(3-aminopropoxy)ethyl)-4-((3-(1-(2,2-difluoroethyl)-3-(trifluoromethyl)-1H-pyrazol-4-yl)imidazo[1,2-a]pyrazin-8-yl)amino)-2-ethylbenzamide formate] | 0.129 |
| CCc1cc(Nc2nccn3c(-c4cn(C5CCC5)nc4C(F)(F)F)cnc23)ccc1C(=O)NCCOCCN1CCCC1 [Example 619, 4-((3-(1-cyclobutyl-3-(trifluoromethyl)-1H-pyrazol-4-yl)imidazo[1,2-a]pyrazin-8-yl)amino)-2-ethyl-N-(2-(2-(pyrrolidin-1-yl)ethoxy)ethyl)benzamide formate] | 0.131 |

Same assay, conditions: Acinetobacter baumannii, ATCC17961, 16 h, strain ATCC 17961, OD600 growth over 16 h, read-out: A. baumannii ATCC 17961 IC90

| IC90 [µM] | SMILES |
| --- | --- |
| 0.496 | N#CCn1cc(-c2cnc3c(Nc4ccc(C(=O)N5CCN(CC(=O)N[C@H]6CCNC6)CC5)c(Cl)c4)nccn23)c(C(F)(F)F)n1 [Example 605, (S)-2-(4-(2-chloro-4-((3-(1-(cyanomethyl)-3-(trifluoromethyl)-1H-pyrazol-4-yl)imidazo[1,2-a]pyrazin-8-yl)amino)benzoyl)piperazin-1-yl)-N-(pyrrolidin-3-yl) acetamide formate] |
| 0.122 | Cc1cc(Nc2nccn3c(-c4cn(CC(F)F)nc4C(F)(F)F)cnc23)cc(F)c1C(=O)NCCCCCCN [Example 615, N-(6-aminohexyl)-4-((3-(1-(2,2-difluoroethyl)-3-(trifluoromethyl)-1H-pyrazol-4-yl)imidazo[1,2-a]pyrazin-8-yl)amino)-2-fluoro-6-methylbenzamide] |
| 0.125 | CCc1cc(Nc2nccn3c(-c4cn(CCF)nc4C(F)(F)F)cnc23)ccc1C(=O)NCCOCCN1CCCC1 [Example 617, 2-ethyl-4-((3-(1-(2-fluoroethyl)-3-(trifluoromethyl)-1H-pyrazol-4-yl)imidazo[1,2-a]pyrazin-8-yl)amino)-N-(2-(2-(pyrrolidin-1-yl)ethoxy)ethyl) benzamide formate] |

Reference: US20230203043A1, “NOVEL IMIDAZOPYRAZINE DERIVATIVES” (Hoffmann-La Roche Inc., priority 2020, published 2023)
